Tests used:
EGFR = test system: EGFR; set-up: method as in PMID 21789172, PMID 18408761, PMID 15728811, PMID 15737014, PMID 17085664; conditions: cited from earlier work
EGFR T790M mutant = test system: EGFR T790M mutant; set-up: method as in PMID 21789172, PMID 18408761, PMID 15728811, PMID 15737014, PMID 17085664; conditions: cited from earlier work
HER2 = test system: HER2; set-up: method as in PMID 21789172, PMID 18408761, PMID 15728811, PMID 15737014, PMID 17085664; conditions: preclinical; read-out: IC50 inhibiting HER2; cited from earlier work
clinical = conditions: human, in vivo; for AUC(0-inf): AUC0-∞
Method: This was the first-in-human phase I dose-escalation study of AST1306 for patients with advanced solid tumors. AST1306 was orally administered without food for one day followed by two days off to evaluate single dose PK profiles. After that, it was continuously administered for 21 days and two days off to assess multiple dose PK profiles and safety. […] Three times daily in three dose levels (800 mg TID, 1000 mg TID and 1200 mg TID) were explored subsequently. Treatment was then repeated at the same dose level in 28-day cycles until unacceptable toxicities, disease progression or the patient’s withdrew from the study. PK extension study was performed to enroll additional patients up to at least eight patients per dose cohort in three dose levels (MTD, one or two doses level lower than the MTD) for further evaluation of PK profiles.
All PK sampling was performed in the first cycle. Plasma concentrations of AST1306 single-day dosing were determined at the following distinct time points: pre-dose, 0.5 h, 1 h, 1.5 h, 2 h, 3 h, 4 h, 6 h, 8 h, 10 h, 12 h, 24 h, 36 h, and 48 h after the single dose administration in the 400 mg QD and 800 mg QD dose cohorts. For the next five dose cohorts with twice daily (once every 12 hours) administration, the time points of plasma sample collection were as follows: pre-dose, 0.5 h, 1 h, 1.5 h, 2 h, 3 h, 4 h, 6 h, 8 h, and 12 h after the first dose administration, and pre-dose, 1 h, 2 h, 3 h, 4 h, 6 h, 8 h, 12 h, and 24 h after the second dose administration. Three dose cohorts with three times daily (once every 8 hours) administration were further investigated with distinct time points for plasma collecting (pre-dose, 0.5 h, 1 h, 1.5 h, 2 h, 3 h, 4 h, 6 h, and 8 h after the first dose administration; 1 h, 2 h, 3 h, 4 h, 5 h, 6 h, and 8 h after the second dose administration; 1 h, 2 h, 3 h, 4 h, 8 h, 12 h, 24 h, and 36 h after the third dose administration). PK parameters of AST1306 were also determined on days 10, 23 (pre-dose and 2 h after the first dosing), and 24 (steady state, the same time points as the first-day dosing) of continuous treatment. The PK sampling schedule for the PK extension phase was totally the same as that for the dose escalation study.
PK analysis was conducted using Phoenix WinNonlin® software (version 6.1, Pharsight, Mountainview, CA). Standard non-compartmental methods were used to calculate the area under the plasma concentration-time curve over the time interval from 0 to 24 h (AUC0–24,ss), maximum measured concentration of the analyte in plasma (Cmax), and terminal half-life of the analyte in plasma (t1/2). Time from dosing to the maximum concentration of the analyte in plasma (tmax,) was reported as a median value. The concentration at the trough level was determined using the concentration at 24 h (C24) on steady state days.
The power model method was used to assess the dose proportionality. The differences between fed and fasting conditions were assessed by ANOVA, and 90% confidence intervals for ratios were given.

advanced solid tumors = assay: Antitumor activity by RECIST 1.0; type: in vivo, human
Method: Antitumor activity was assessed by tumor measurements according to RECIST 1.0 and performed at 8-week intervals. The primary efficacy endpoint was progression free survival (PFS), which was defined as the time from the first administration until disease progression or death. Overall survival (OS) and response rate were also assessed. Clinical benefit rate was measured and defined as the proportion of patients with complete response, partial response and stable disease (SD) ≥ 6 months.

In the case of C=CC(=O)Nc1ccc2ncnc(Nc3ccc(OCc4cccc(F)c4)c(Cl)c3)c2c1 [AST1306], the “fold more potent than afatinib and dacomitinib” value (EGFR; EGFR and HER2 IC50) is given as 5-15 fold, the IC50 (EGFR; preclinical, read-out: IC50 inhibiting EGFR) is given as 0.5 nM and the “fold more potent than lapatinib” value (EGFR T790M mutant; EGFR T790M mutant) is given as “approximately 500 fold”. The IC50 (EGFR T790M mutant; preclinical) was 12 ± 2 nM, the IC50 (HER2) was 3 nM and the Tmax (clinical) was 2.65 (43.8) h. The “multiple-dose vs single-dose exposure (mean accumulation ratio R, AUCss day 23–24 / AUC0-24h day 1)” value (clinical) was “no more than 3 fold”, the t1/2z (clinical) was 5.56 (51.6) h and the AUC0-24 h (clinical; 400 mg) was 116 ng·h/mL. For the same compound, the “AUC0-∞” value (clinical; 400 mg) was 119 ng·h/mL, the AUC(0-t) (clinical; 400 mg) was 116 ng·h/mL and the Cmax (clinical; 400 mg) was 22.6 ng/mL. For the same compound, the “R_AUC (accumulation ratio, AUCss days 23–24 / AUC0-24h day 1)” value (clinical; 400 mg) was 2.81, the Tmax (clinical; 400 mg) was 2.00 h and the t1/2z (clinical; 400 mg) was 4.66 h. For the same compound, the λz (clinical; 400 mg) was 0.149 h⁻¹, the Cmax3 (clinical; 600 mg) was 64.5 (69.4) ng/mL and the Cmax (clinical; 800 mg) was 50.0 (16.0) ng/mL. For the same compound, the Cmax2 (clinical; 800 mg) was 74.3 (20.4) ng/mL, the Cmax (clinical; 800 mg, Cmax) was 67.7 ng/mL and the AUC0-24 h (clinical; 1000 mg) was 696 (57.6) h*ng/mL. For the same compound, the “AUC0-∞” value (clinical; 1000 mg) was 792 (54.1) h*ng/mL, the AUC(0-t) (clinical; 1000 mg) was 781 (54.7) h*ng/mL and the Cmax (clinical; 1000 mg) was 75.0 (52.1) ng/mL. For the same compound, the Cmax3 (clinical; 1000 mg) was 89.7 (42.1) ng/mL, the AUC(0-t) (clinical; 1000 mg, AUC0-24 h) was 1130 ng·h/mL and the AUC(0-t) (clinical; 1000 mg, AUC0-t) was 1420 ng·h/mL. For the same compound, the AUC(0-inf) (clinical; 1000 mg) was 1430 ng·h/mL, the Cmax (clinical; 1000 mg, Cmax) was 47.3 ng/mL and the Cmax (clinical; 1200 mg) was 50.9 (70.6) ng/mL. For the same compound, the Cmax3 (clinical; 1200 mg) was 210.0 (81.5) ng/mL, the Cmax (clinical; 1200 mg, Cmax) was 61.9 ng/mL and the Cmax2 (clinical; 1500 mg) was 103.0 (25.8) ng/mL. For the same compound, the “R_AUC (accumulation ratio, AUCss days 23–24 / AUC0-24h day 1)” value (clinical; 1500 mg) was 0.87 (32.0), the Tmax (clinical; 1500 mg) was 1.92 (30.5) h and the t1/2z (clinical; 1500 mg) was 3.48 (12.8) h. For the same compound, the λz (clinical; 1500 mg) was 0.202 (13.3) 1/h, the AUC(0-t) (clinical; 1500 mg, AUC0-24 h) was 997 ng·h/mL and the AUC(0-t) (clinical; 1500 mg, AUC0-t) was 1190 ng·h/mL. It also gave an AUC(0-inf) (clinical; 1500 mg) of 1200 ng·h/mL, a Cmax (clinical; 1500 mg, Cmax) of 57.1 ng/mL and a half-life (clinical; gMean terminal half-life) of 3.33 to 7.57 h. For the same compound, the “time to Cmax after oral administration” value (clinical; po) was 1.83 to 3.67 h, the half-life (clinical; t1/2) was 3 to 5 h and the half-life (clinical; terminal half-life) was 3.48 to 5.56 h. The “median OS” value (advanced solid tumors; 12 NSCLC patients) was “not yet been reached”, the “median PFS” value (advanced solid tumors; 12 NSCLC patients) was 3.6 months and the “median OS” value (advanced solid tumors; 17 breast cancer patients) was 17.7 (95% CI, 16.1–19.3) months. The “median PFS” value (advanced solid tumors; 17 breast cancer patients) was 5.5 (95% CI, 3.2–7.9) months, the “confirmed PR, % of patients” value (advanced solid tumors; 55 evaluable patients) was 12.7% and the “confirmed partial responses, patients” value (advanced solid tumors; 55 evaluable patients) was 7. For the same compound, the “stable disease ≥ 6 months, patients” value (advanced solid tumors; 55 evaluable patients) was 7, the “confirmed PR, patients” value (advanced solid tumors; NSCLC, 12 evaluable) was 1 and the “confirmed PR, patients” value (advanced solid tumors; breast cancer, 17 evaluable, all responders HER2 positive) was 5. For the same compound, the “confirmed PR, patients” value (advanced solid tumors; gastric cancer) was 1.

— PMC4007625, “A phase I study of AST1306, a novel irreversible EGFR and HER2 kinase inhibitor, in patients with advanced solid tumors” (Journal of Hematology & Oncology, 2014)
